Measurements as given in US10278958B2, “IPA as a protective agent” (IXCELA, INC., priority 2012, dated 2019).
Entries after “also recorded” stand apart in the source; their conditions may differ.

How the values were obtained:
ubiquitin = target: T1, ubiquitin (Homo sapiens, UniProt P0CG47); assay: Fenton reaction of I3PA with ubiquitin, high resolution MS
T1 construct: A calculation of a theoretical value for ubiquitin ([M+H]^+ m/z 8560.6287)
Method: A Fenton reaction was performed using the same concentrations of hydrogen peroxide, iron sulfate and I3PA as discussed above. One microliter of a solution of ubiquitin prepared to a concentration of 10 mg/mi was added to the mixture. In addition, a separate tube containing only the Fenton reaction without ubiquitin was prepared and labeled as the negative control. The reaction was kept in the dark at 4° C. for 16 h.
High resolution MS analysis of the reaction mixtures was performed using a 12-T Qh/FT-ICR hybrid mass spectrometer (SolariX, Bruker Daltonics) that was equipped with a nanospray source operated in the positive mode. Samples were diluted 1:10 in 50/50 methanol/water, 0.5% formic acid and analyzed on the SolariX. Detection of ions in the SolariX was obtained at a resolution of approximately 110,000.

angiotensin I = target: T2, angiotensin I (Homo sapiens, UniProt P01019); assay: Fenton reaction of I3PA with angiotensin I, MS/MS
T2 construct: attempt this Fenton reaction with I3PA using angiotensin I as the peptide target; purchased The American Peptide Co
Method: Angiotensin I was obtained from The American Peptide Co in Sunnyvale, Calif., USA. Six tubes were prepared with the following Fenton reaction mixtures: Tubes 1 and 4 contained 100 μM H2O2, 10 μM iron sulfate and 100 μM I3PA; Tubes 2 and 5 contained 100 μM H2O2, 100 μM iron sulfate and 100 μM I3PA. Tubes 3 and 6 contained 100 μM H2O2, 200 μM iron sulfate and 100 μM I3PA. Tubes 4, 5, and 6 also contained 1 μl of angiotensin I prepared to a concentration of 10 mg/ml. A separate tube containing only the Fenton reaction without angiotensin I was prepared and labeled as the negative control. The tubes containing the reaction mixtures were covered with aluminum wrap so that none of the reagents would deteriorate in the ambient light. All reaction mixtures were kept on ice. The tubes were left to react for 30 h.
High resolution MS analysis of the reaction mixtures was performed using a 12-T Qh/FT-ICR hybrid mass spectrometer (SolariX, Bruker Daltonics) that was equipped with a nanospray source operated in the positive mode. Samples were diluted 1:2 in 50/50 methanol/water, 0.5% formic acid (for positive-ion mode) or 50/50 methanol/water, 0.05% triethylamine (TEA) (VWR Scientific, PA, USA) (for negative-ion mode) and were analyzed on the SolariX in positive and negative modes. Detection of ions in the SolariX was obtained at a resolution of approximately 110,000. […]

[1] = tested on: plasma proteins both albumin and imunoglobulins; format: in vitro ADME
Description: (§1) IPA is an indole produced in organisms such as c. Sporogenes that have the enzyme to remove the OH from the 2 position on the propionic acid side chain of indole lactic acid an end product of tryptophan metabolism in mammalian species. It is one of several gut metabolites that affect the plasma metabolome. Other organisms such as brewers yeast also show the ability to produce IPA (Sec below a means of producing purified IPA preparations using brewers yeast or similar organisms). […] We have shown that on free radical attack the intermediate positive ion free radical binds to protein as a kynuric acid moiety. […] We also have identified two metabolites of IPA that allow monitoring of levels in excretion samples such as urine which correlate with plasma and brain levels.

whole human plasma = assay: Binding constants for I3PA by serial additions, whole human plasma; conditions: whole human plasma vs ubiquitin
Description: (§2) In ancillary studies we measured the parent binding constants for I3PA with whole human plasma, HSA, BSA and ubiquitin using serial additions of I3PA to determine the number of molar equivalents of binding sites and mole equivalents of free I3PA. The binding constants (pk) for whole human plasma, HSA and BSA are one the order of 10^3 or greater than for ubiquitin alone. […] Thus, efforts to increase the yield of covalently bound kynuric acid were prevented by over generation of non-covalently bound material. We then decided to attempt this Fenton reaction with I3PA using angiotensin I as the peptide target.

BSA = BSA (Bos taurus, UniProt P02769); format: binding
Chain of BSA (P02769 25-607): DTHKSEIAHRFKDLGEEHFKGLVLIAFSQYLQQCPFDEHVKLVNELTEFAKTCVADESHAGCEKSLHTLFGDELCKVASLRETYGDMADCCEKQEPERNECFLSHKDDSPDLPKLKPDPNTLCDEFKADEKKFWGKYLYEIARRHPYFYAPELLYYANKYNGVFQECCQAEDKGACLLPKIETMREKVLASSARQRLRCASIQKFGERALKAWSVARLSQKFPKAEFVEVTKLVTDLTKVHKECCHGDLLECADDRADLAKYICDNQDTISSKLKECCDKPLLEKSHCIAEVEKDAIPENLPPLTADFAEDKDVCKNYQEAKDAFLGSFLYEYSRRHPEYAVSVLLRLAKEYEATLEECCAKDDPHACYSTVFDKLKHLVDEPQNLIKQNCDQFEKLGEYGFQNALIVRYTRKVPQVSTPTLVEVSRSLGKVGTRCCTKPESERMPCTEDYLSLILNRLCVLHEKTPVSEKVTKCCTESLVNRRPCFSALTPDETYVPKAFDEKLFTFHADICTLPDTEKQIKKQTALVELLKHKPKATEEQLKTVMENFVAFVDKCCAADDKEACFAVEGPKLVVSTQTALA
Description: as §2

[2] = Stability of IPA in plasma at room temperature; format: in vitro ADME; conditions: after 7 days at room temperature
Description: FIG. 26 illustrates the first criterion for selecting compounds for targeted methods is that is a progressive biomarkers—as shown by the trend from C to PMHD to HD in the left hand panel for IPA. A practical criterion is stability. […] Method development then involves integrating simplest preparative and instrument protocols for speed and minimum sample size and interferences. A preparative protocol using a simple 3:1 addition of methanol to plasma centrifuging and injecting supernate was matched to a mobile phase, column and detector settings allowing sensitivity to 2 ng/ml, linearity across the range and analysis with no currently determined interferences. […] The third panel illustrates the application of the method to mouse urine in a dose loading study of IPAM showing two metabolites in dosed animals (green) and the same two metabolites in un dosed mice (blue) and in human urine (red).

[3] = Distribution of gut-produced IPA to plasma, brain and CSF; format: in vivo, HD mouse models and human; conditions: for crossing of the blood-brain-barrier: gut-produced IPA, brain and CSF
Description: as §1

[4] = Fenton reaction: disappearance of I3PA; format: physicochemical; conditions: 100 μM H2O2, 10 μM iron sulfate, 100 μM I3PA, 4° C. in the dark, 2 h
Method: The reaction mixture was kept at 4° C. in the dark. Every 30 min, a small aliquot of the reaction mixture was diluted 1:10 and injected onto the offline LC-EC array system.

brewers yeast protein = assay: Binding of IPA to brewers yeast protein (10K MW filter) and release in HCl; format: physicochemical; conditions: supernate through a 10K MW filter
Description: In yet another aspect of the disclosure we provide a method for preparation of purified indole therapies. Indoles as a class are subject to degradation and contamination such as the problem encountered with preparations of tryptophan that were related to development basal eosinophilia. Nominally pure commercial sources of indoles when evaluated using ultra-sensitive LCECA techniques show traces of other compounds from the […] to (pg/mg) levels (part per billion to sub part per trillion). These are potentially harmful. Pharmaceutical grade and supplemental tryptophan has now been brought to levels high purity that can be verified by LCECA. To take advantage of this we have developed a protocol for creating high concentrations of IPA using brewers yeast which also produces IPA with relatively good efficiency operating on a substrate of glucose and tryptophan. Brewers yeast as such is a common supplement and present as an extract in typical research mouse feed. Production of IPA in this matrix provides a highly purified IPA in a verifiably and long accepted matrix. As an example a preparation of 1 g of brewers yeast, 500 mg of glucose and 50 mg of tryptophan allowed to incubate to completion at room temperature (90-120 min) in 35 ml of distilled water yields ca. 3 mg of IPA. […]

E. coli = conditions: culture studies; cited from earlier work
[5] = tested on: Alzheimer β-amyloid protein; conditions: two examples of oxidative stress; cited from earlier work
[6] = tested on: ischemia-induced neuronal damage; conditions: mice and hamsters; by reducing DNA damage and lipid peroxidation; cited from earlier work
protein aggregation = conditions: in vitro; cited from earlier work
[7] = Loading study of IPAM in R6/2 HD mice; format: in vivo, mouse
Method: A cohort of R6/2 HD mice were dosed daily for 3 weeks intra peritoneal with 200 ug of the IPA derivative amide indole propionamide (IPAM) and compared with undosed R6/2 and their wild type littermates. Feces and urine were collected at the time of sacrifice and blood and brain after sacrifice. The data indicates: • 1. That the brain and plasma levels correlate with urinary levels and thus animals can be tracked in a drug trial without sacrifice. • 2. […] The R6/2 levels of IPA in brain and plasma are lower than in wild type mice. In this study although feces levels were lower the decrease was not significant.

Q: Which “binding of I3PA oxidation product to ubiquitin” value (ubiquitin) does the source give for kynuric acid here?
A: Its value is “bound both covalently and co-coordinately”.

Q: What about the “covalent binding site on angiotensin I” value (angiotensin I) of the same compound?
A: Its value is “Tyr4”.

Q: For `O=C(O)CCc1c[nH]c2ccccc12` [IPA, indole-3-propionic acid], which “binding to plasma proteins” value [1] is on record?
A: Its value is “strongly bound to plasma proteins”.

Q: What about the free levels [1] of the same compound?
A: Its free levels is “ca. 0.1 ng/ml”.

Q: What about the “loading capacity of plasma for IPA” value [1] of the same compound?
A: The value was “approximately 10 ug/ml”.

Q: And the normal plasma levels [1]?
A: Its normal plasma levels is “ca. 200 ug/ml”.

Q: And the “binding constants (pk) relative to ubiquitin alone” value (whole human plasma)?
A: Its value is ~10^3.

Q: What about the “binding constants (pk) relative to ubiquitin alone” value (BSA) of the same compound?
A: Its value is ~10^3.

Q: What about the degradation in plasma [2] of the same compound?
A: The degradation in plasma was 5%.

Q: What about the absorption ([3]; animal model and human studies) of the same compound?
A: Its absorption is “best adsorbed through the gut”.

Q: What about the “crossing of the blood-brain-barrier” value [3] of the same compound?
A: The value was “crosses the BBB and is found in brain and CSF”.

Q: And the “crossing of the blood-brain-barrier” value ([3]; listed as I3PA)?
A: The value was “did cross the blood-brain-barrier; also recorded: crosses the blood-brain-barrier”.

Q: And the “transfer from gut to plasma” value ([3]; residual fecal levels vs plasma levels)?
A: The value was “majority of IPA produced is transferred to plasma”.

Q: And the “oxidative stability in Fenton reaction” value [4]?
A: The value was “disappearance of I3PA”.

Q: And the “IPA coordinately bound to brewers yeast protein” value (brewers yeast protein)?
A: The value was 75-80%.

Q: What about the “effect on other microbial species” value (E. coli) of the same compound?
A: The value was “suppress other microbial species such as E. coli”.

Q: What about the neuroprotection [5] of the same compound?
A: The neuroprotection was “strong levels of neuroprotection”.

Q: What about the protection of neurons [6] of the same compound?
A: Its protection of neurons is “protects neurons from ischemia-induced neuronal damage”.

Q: And the “effect on protein aggregation” value (protein aggregation)?
A: Its value is “suppress protein aggregation”.

Q: Which “conversion of IPAM to IPA” value ([7]; intra peritoneal 200 ug daily for 3 weeks, R6/2 mice, blood/plasma vs gut) does the source give for indole propionamide [IPAM] here?
A: The value was “converted rapidly in the blood to IPA but less rapidly in the gut; also recorded: rapidly converted to IPA in the plasma; also recorded: converted rapidly to I3PA in plasma and less rapidly in the gut”.

Q: What about the urinary metabolites ([7]; mouse urine of dosed animals) of the same compound?
A: The urinary metabolites was “probable glucuronide type Phase II metabolite compounds”.
